Read-outs that look alike come from different tables or passages of the source. Where a SMILES comes first, the peptide text is derived from it. Bridges are numbered along the chain shown (N, C = ends). [ ]: non-standard residue; d: D form. dHyp = O=C(O)[C@H]1C[C@H](O)CN1; Pen = CC(C)(S)[C@H](N)C(=O)O; Tle = CC(C)(C)[C@H](N)C(=O)O; NMeC = CN[C@@H](CS)C(=O)O; dDab = NCC[C@@H](N)C(=O)O; Nle = CCCC[C@H](N)C(=O)O; Orn = NCCC[C@H](N)C(=O)O; Dab = NCC[C@H](N)C(=O)O; Dap = NC[C@H](N)C(=O)O
What was measured:
Assay type in all cases: cell-based
[1] = tested on: human red blood cells (hRBC); experiment: Hemolysis of human red blood cells; conditions: 100 μg/mL
Outline: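 Hemolysis was read as supernatant absorbance at 540 nm and expressed as a percentage of Triton X-100 (2.5%) lysis. Washed human red cells (20% v/v) had been exposed to each peptide at 100 μg/mL for 1 h at 37° C.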

[2] = tested on: Klebsiella pneumoniae 968733
[3] = tested on: Pseudomonas aeruginosa ATCC 27853
Outline: (§1)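 Read-out is the minimal inhibitory concentration in μg/mL, taken as the lowest peptide level without visible growth after 18-20 h at 35° C. Testing followed CLSI broth microdilution in cation-adjusted Mueller-Hinton II broth plus 0.002% Polysorbate 80, with roughly 10^6 CFU/mL.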

Escherichia coli 926415 = tested on: Escherichia coli 926415
[4] = tested on: Klebsiella pneumoniae SSI #3010
Outline: as §1

[5] = tested on: Escherichia coli ATCC 25922
Outline: as §1

[6] = tested on: Acinetobacter baumannii 872842
[7] = tested on: Acinetobacter baumannii DSM 30008
Outline: as §1

[8] = clinical isolate, Mueller-Hinton II broth, P-80 0.002% present

SMILES	Hemolysis at 100 μg/mL ([1]; red cells of human, 1 h) [%]	Klebsiella pneumoniae 968733 MIC [2]; 968733 [µg/mL]	Pseudomonas aeruginosa ATCC 27853 MIC ([3]; ATCC 27853) [µg/mL]	Escherichia coli 926415 MIC (Escherichia coli 926415; 926415) [µg/mL]	Klebsiella pneumoniae SSI #3010 MIC ([4]; SSI #3010) [µg/mL]	Escherichia coli ATCC 25922 MIC ([5]; ATCC 25922) [µg/mL]	Acinetobacter baumannii 872842 MIC [6]; 872842 [µg/mL]	Acinetobacter baumannii DSM 30008 MIC ([7]; DSM 30008) [µg/mL]	Hemolysis at 100 μg/mL ([1]; 20% hRBC, 1 h at 37° C.) [%]	Klebsiella pneumoniae 968733 MIC [2, 8] [µg/mL]	Pseudomonas aeruginosa ATCC 27853 MIC ([3]; Mueller-Hinton II broth) [µg/mL]	Escherichia coli 926415 MIC (Escherichia coli 926415; [8]) [µg/mL]	Klebsiella pneumoniae SSI #3010 MIC ([4]; Mueller-Hinton II broth) [µg/mL]	Escherichia coli ATCC 25922 MIC ([5]; Mueller-Hinton II broth) [µg/mL]	Acinetobacter baumannii 872842 MIC [6, 8] [µg/mL]	Acinetobacter baumannii DSM 30008 MIC ([7]; Mueller-Hinton II broth) [µg/mL]
CCCC[C@@H]1NC(=O)[C@@H]2CCCN2C(=O)[C@H]2CCCN2C(=O)[C@H](CO)NC(=O)[C@H](CO)NC(=O)[C@H](C(C)(C)C)NC(=O)[C@H](CCN)NC(=O)[C@H](Cc2c[nH]c3ccccc23)NC(=O)[C@@H](N)CSSC[C@@H](C(=O)N[C@@H](C(=O)N[C@H](CCN)C(=O)N[C@H]2CCNC(=O)[C@H]([C@@H](C)O)NC(=O)[C@H](CCN)NC(=O)[C@H](CCN)NC(=O)[C@H](CC(C)C)NC(=O)[C@@H](Cc3ccccc3)NC(=O)[C@H](CCN)NC2=O)[C@H](C)O)NC(=O)[C@H](CCCN)NC(=O)[C@H](CCN)NC(=O)[C@H](Cc2ccc(O)cc2)NC(=O)[C@H](CO)NC1=O [Ex. 204] (H-CW[Dab][Tle]SS[dP]P[Nle]SY[Dab][Orn]C[dT][dDab][Dab][Dab][dF]L[Dab][Dab]T; disulfide 1-14; lactam 17-C)	3	0.5	0.5	0.125	0.25	0.25	0.25	0.5								
CCCC[C@@H]1NC(=O)[C@@H]2CCCN2C(=O)[C@H]2CCCN2C(=O)[C@H](CO)NC(=O)[C@H](CO)NC(=O)[C@H](C(C)(C)C)NC(=O)[C@H](CCN)NC(=O)[C@H](Cc2c[nH]c3ccccc23)NC(=O)[C@@H](N)CSSC[C@@H](C(=O)N[C@@H](CCN)C(=O)N[C@H](CCN)C(=O)N[C@H]2CCNC(=O)[C@H]([C@@H](C)O)NC(=O)[C@H](CCN)NC(=O)[C@H](CCN)NC(=O)[C@H](CC(C)C)NC(=O)[C@@H](Cc3ccccc3)NC(=O)[C@H](CCN)NC2=O)NC(=O)[C@H](CCCN)NC(=O)[C@H](CCN)NC(=O)[C@H](Cc2ccc(O)cc2)NC(=O)[C@H](CO)NC1=O [Ex. 205] (H-CW[Dab][Tle]SS[dP]P[Nle]SY[Dab][Orn]C[Dab][dDab][Dab][Dab][dF]L[Dab][Dab]T; disulfide 1-14; lactam 17-C)	<1	2	0.25	0.5	2	0.25	0.5	2								
CCCC[C@@H]1NC(=O)[C@@H]2CCCN2C(=O)[C@H]2CCCN2C(=O)[C@H](CO)NC(=O)[C@H](Cc2ccc(O)cc2)NC(=O)[C@H](C(C)(C)C)NC(=O)[C@H](CCN)NC(=O)[C@H](Cc2c[nH]c3ccccc23)NC(=O)[C@@H](NC)CSSC[C@@H](C(=O)N[C@H](CCN)C(=O)N[C@H]2CCNC(=O)[C@H]([C@@H](C)O)NC(=O)[C@H](CCN)NC(=O)[C@H](CCN)NC(=O)[C@H](CC(C)C)NC(=O)[C@@H](CC(C)C)NC(=O)[C@H](CCN)NC2=O)NC(=O)[C@H](CCCN)NC(=O)[C@H](CCN)NC(=O)[C@H](Cc2ccc(O)cc2)NC(=O)[C@H](CO)NC1=O [Ex. 207] (H-[NMeC]W[Dab][Tle]YS[dP]P[Nle]SY[Dab][Orn]C[dDab][Dab][Dab][dL]L[Dab][Dab]T; disulfide 1-14; lactam 16-C)	1	0.5	2	0.25	0.125	0.125	1	2								
CC(C)C[C@@H]1NC(=O)[C@@H](CC(C)C)NC(=O)[C@H](CCN)NC(=O)[C@@H](NC(=O)[C@@H](CCN)NC(=O)[C@@H]2CSSC(C)(C)[C@H](N)C(=O)N[C@@H](Cc3c[nH]c4ccccc34)C(=O)N[C@@H](CCN)C(=O)N[C@@H](C(C)C)C(=O)N[C@@H](CO)C(=O)N[C@@H](CO)C(=O)N3C[C@@H](O)C[C@@H]3C(=O)N3CCC[C@H]3C(=O)N[C@@H](CC(C)C)C(=O)N[C@@H](CO)C(=O)N[C@@H](Cc3ccc(O)cc3)C(=O)N[C@@H](CCN)C(=O)N[C@@H](CCCN)C(=O)N2)CCNC(=O)[C@H]([C@@H](C)O)NC(=O)[C@H](CCN)NC(=O)[C@H](CCN)NC1=O [Ex. 208] (H-[Pen]W[Dab]VSS[dHyp]PLSY[Dab][Orn]C[dDab][Dab][Dab][dL]L[Dab][Dab]T; disulfide 1-14; lactam 16-C)	<1	8	2	0.5	1	0.25	2	1								
CC(C)C[C@@H]1NC(=O)[C@@H](CC(C)C)NC(=O)[C@H](CCN)NC(=O)[C@@H](NC(=O)[C@@H](CCN)NC(=O)[C@@H]2CSSC[C@H](N)C(=O)N[C@@H](Cc3c[nH]c4ccccc34)C(=O)N[C@@H](CCN)C(=O)N[C@@H](C(C)C)C(=O)N[C@@H]([C@@H](C)O)C(=O)N[C@@H](Cc3ccc(O)cc3)C(=O)N3CCC[C@@H]3C(=O)N3CCC[C@H]3C(=O)N[C@@H](CC(C)C)C(=O)N[C@@H](CO)C(=O)N[C@@H](Cc3ccc(O)cc3)C(=O)N[C@@H](CCN)C(=O)N[C@@H](CCN)C(=O)N2)CCNC(=O)[C@H]([C@@H](C)O)NC(=O)[C@H](CCN)NC(=O)[C@H](CCN)NC1=O [Ex. 209] (H-CW[Dab]VTY[dP]PLSY[Dab][Dab]C[dDab][Dab][Dab][dL]L[Dab][Dab]T; disulfide 1-14; lactam 16-C)	3	0.5	1	0.25	0.25	0.125	0.5	0.5								
CCCC[C@@H]1NC(=O)[C@@H]2CCCN2C(=O)[C@H]2CCCN2C(=O)[C@H](CO)NC(=O)[C@H](C)NC(=O)[C@H](C(C)(C)C)NC(=O)[C@@H]2CCC(=O)NCC[C@H](NC(=O)[C@H](Cc3ccc(O)cc3)NC(=O)[C@H](CN)NC1=O)C(=O)N[C@@H](CCCN)C(=O)N[C@H](C(=O)N[C@H](CCN)C(=O)N[C@H]1CCNC(=O)[C@H]([C@@H](C)O)NC(=O)[C@H](CCN)NC(=O)[C@H](CCN)NC(=O)[C@H](CC(C)C)NC(=O)[C@@H](Cc3ccccc3)NC(=O)[C@H](CCN)NC1=O)CSSC[C@H](N)C(=O)N[C@@H](Cc1c[nH]c3ccccc13)C(=O)N2 [Ex. 210] (H-CWE[Tle]AS[dP]P[Nle][Dap]Y[Dab][Orn]C[dDab][Dab][Dab][dF]L[Dab][Dab]T; disulfide 1-14; lactam 3-12, 16-C)	1	4	1	0.5	0.5	0.25	2	1								
CC(=O)N[C@H]1CSSC[C@@H](C(=O)N[C@H](CCN)C(=O)N[C@H]2CCNC(=O)[C@H]([C@@H](C)O)NC(=O)[C@H](CCN)NC(=O)[C@H](CCN)NC(=O)[C@H](CC(C)C)NC(=O)[C@@H](Cc3ccccc3)NC(=O)[C@H](CCN)NC2=O)NC(=O)[C@H](CCCN)NC(=O)[C@H](CC(N)=O)NC(=O)[C@H](Cc2ccc(O)cc2)NC(=O)[C@@H]2CSSC[C@H](NC(=O)[C@H](Cc3ccc(O)cc3)NC(=O)[C@H](CO)NC(=O)[C@H](Cc3c[nH]c4ccccc34)NC1=O)C(=O)N[C@@H](C(C)C)C(=O)N[C@H](CCN)C(=O)N[C@@H](CCCNC(=N)N)C(=O)N[C@@H](CC(C)C)C(=O)N2 [Ex. 211] (Ac-CWSYCV[dDab]RLCYN[Orn]C[dDab][Dab][Dab][dF]L[Dab][Dab]T; disulfide 1-14, 5-10; lactam 16-C)									2	8	2	2	1	0.5	2	1

Reference: US10829520B2, “Beta-hairpin peptidomimetics” (POLYPHOR AG, priority 2015, dated 2020)
